Measurements: publication PMC4281105 (Journal of medicinal chemistry, 2014)
Converted amounts (≈) assume the structure as drawn. Like-named read-outs stand apart in the source and are kept apart here.

Assays:
RSV = test: viral titer; format: cell-based, human respiratory syncytial virus; settings: for log reduction at 10 µM: human respiratory syncytial virus, read-out: viral titer reduction at 10 µM
recRSV-luciferase = recRSV-luciferase assay; format: cell-based, respiratory syncytial virus; settings: luciferase readout
[1] = biological target: calcium channel, L-type, dihydropyridine (Rattus norvegicus, UniProt P22002); test: Panlabs 214600 radioligand binding; settings: read-out: % Inh.
Chain of calcium channel, L-type, dihydropyridine (P22002 whole entry): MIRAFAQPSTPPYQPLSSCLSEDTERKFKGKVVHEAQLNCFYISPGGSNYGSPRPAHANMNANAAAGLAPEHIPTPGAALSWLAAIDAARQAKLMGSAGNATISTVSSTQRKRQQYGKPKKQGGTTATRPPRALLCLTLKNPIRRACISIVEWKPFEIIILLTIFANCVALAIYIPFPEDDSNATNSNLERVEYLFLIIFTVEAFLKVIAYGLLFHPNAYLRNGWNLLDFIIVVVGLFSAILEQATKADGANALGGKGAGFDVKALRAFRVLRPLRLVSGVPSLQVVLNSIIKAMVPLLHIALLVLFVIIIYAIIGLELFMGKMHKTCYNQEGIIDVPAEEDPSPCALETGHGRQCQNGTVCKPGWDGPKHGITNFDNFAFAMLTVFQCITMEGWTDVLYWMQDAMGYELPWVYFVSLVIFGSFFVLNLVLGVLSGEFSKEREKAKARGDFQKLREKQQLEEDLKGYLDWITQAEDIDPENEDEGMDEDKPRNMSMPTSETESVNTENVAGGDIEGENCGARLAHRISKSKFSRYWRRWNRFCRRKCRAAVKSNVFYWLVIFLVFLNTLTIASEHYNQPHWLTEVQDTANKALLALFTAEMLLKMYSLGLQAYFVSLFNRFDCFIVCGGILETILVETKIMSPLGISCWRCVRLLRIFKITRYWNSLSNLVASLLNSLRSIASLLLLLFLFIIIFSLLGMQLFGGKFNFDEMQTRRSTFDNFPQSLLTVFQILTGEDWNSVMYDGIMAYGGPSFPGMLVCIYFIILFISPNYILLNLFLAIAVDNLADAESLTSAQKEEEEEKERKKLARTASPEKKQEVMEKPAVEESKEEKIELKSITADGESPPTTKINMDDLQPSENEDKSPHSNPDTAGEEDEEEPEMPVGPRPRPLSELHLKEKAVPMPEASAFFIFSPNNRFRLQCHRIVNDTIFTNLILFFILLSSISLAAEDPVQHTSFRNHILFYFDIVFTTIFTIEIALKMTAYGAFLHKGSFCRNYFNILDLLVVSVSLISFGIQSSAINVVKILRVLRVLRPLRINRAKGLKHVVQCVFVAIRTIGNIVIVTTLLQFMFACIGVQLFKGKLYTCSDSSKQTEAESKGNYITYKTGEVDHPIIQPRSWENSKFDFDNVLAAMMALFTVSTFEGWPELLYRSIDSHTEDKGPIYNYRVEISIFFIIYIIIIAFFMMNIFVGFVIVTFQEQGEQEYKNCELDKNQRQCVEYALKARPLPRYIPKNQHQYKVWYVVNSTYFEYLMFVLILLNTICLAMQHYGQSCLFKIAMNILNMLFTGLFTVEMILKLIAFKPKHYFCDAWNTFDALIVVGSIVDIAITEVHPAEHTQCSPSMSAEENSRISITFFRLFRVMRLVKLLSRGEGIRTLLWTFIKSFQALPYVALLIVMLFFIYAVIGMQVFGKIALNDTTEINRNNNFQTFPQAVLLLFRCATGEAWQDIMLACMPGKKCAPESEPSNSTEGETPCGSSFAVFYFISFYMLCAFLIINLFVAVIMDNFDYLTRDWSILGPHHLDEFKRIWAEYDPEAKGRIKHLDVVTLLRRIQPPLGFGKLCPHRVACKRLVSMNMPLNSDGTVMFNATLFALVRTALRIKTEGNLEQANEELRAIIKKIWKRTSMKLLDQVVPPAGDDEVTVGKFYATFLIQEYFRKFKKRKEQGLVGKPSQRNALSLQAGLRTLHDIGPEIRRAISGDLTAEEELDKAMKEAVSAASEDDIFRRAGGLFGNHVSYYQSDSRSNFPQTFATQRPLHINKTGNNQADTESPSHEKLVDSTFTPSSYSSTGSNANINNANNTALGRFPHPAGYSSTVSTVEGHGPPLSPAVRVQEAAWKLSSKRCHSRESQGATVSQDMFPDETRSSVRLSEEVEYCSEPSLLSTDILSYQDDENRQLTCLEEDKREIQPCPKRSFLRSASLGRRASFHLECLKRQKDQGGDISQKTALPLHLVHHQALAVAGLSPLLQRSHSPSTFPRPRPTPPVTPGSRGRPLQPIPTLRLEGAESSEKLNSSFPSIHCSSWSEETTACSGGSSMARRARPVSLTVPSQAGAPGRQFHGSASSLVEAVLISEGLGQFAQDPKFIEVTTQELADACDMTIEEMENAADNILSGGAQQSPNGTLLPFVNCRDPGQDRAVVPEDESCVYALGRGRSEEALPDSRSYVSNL

hRSV strain Long = test: hRSV CPE assay; format: cell-based, human respiratory syncytial virus
[2] = biological target: calcium channel, L-type, benzothiazepine (Rattus norvegicus, UniProt P22002); test: biochemical; settings: read-out: % Inh.
Chain of calcium channel, L-type, benzothiazepine (P22002 whole entry): as above

recMeV-luciferase = recMeV-luciferase assay; format: cell-based, measles virus; settings: luciferase readout, reporter interference control
[3] = test system: Fa2N-4 immortalized human hepatocytes; settings: read-out: hepatocyte toxicity LC50
[4] = not given; remark: listed apart in the source
[5] = for Pe, PAMPA permeability: PBS, no additives
[6] = human respiratory syncytial virus, HEp-2, read-out: RSV CPE potency ± standard deviation EC50, HEp-2 cells, hRSV strain Long, 10-point dose response
[7] = read-out: RSV CPE potency ± standard deviation EC50, HEp-2 cells, hRSV strain Long, 10-point dose response

| SMILES | EC50 (hRSV strain Long; [6]) [µM] | log reduction at 10 µM (RSV) | other results |
| --- | --- | --- | --- |
| COCCCNC(=O)c1ccc(Cn2c(=O)c3ccccc3n(Cc3ccc(C(C)C)cc3)c2=O)cc1 [Compound 19, 4-((1-(4-isopropylbenzyl)-2,4-dioxo-1,2-dihydroquinazolin-3(4H)-yl)methyl)-N-(3-methoxypropyl)benzamide] | 0.3 ± 0.03 | 6.7 | inhibition of recRSV-luciferase (recRSV-luciferase): efficiently inhibited; inhibition at 10 µM [1]: 70%; EC50 (hRSV strain Long; human respiratory syncytial virus, RSV CPE, as given in abstract): 0.3 to 0.5 µM; inhibition at 10 µM [2]: 52%; activity against recMeV-luciferase (recMeV-luciferase): inactive |
| CN(C)c1ccc(Cn2c(=O)n(Cc3ccc(C(=O)NCC4COC4)cc3)c(=O)c3ccccc32)cc1 [Compound 46, 4-((1-(4-(dimethylamino)benzyl)-2,4-dioxo-1,2-dihydroquinazolin-3(4H)-yl)methyl)-N-(oxetan-3-ylmethyl)-benzamide] |  |  | viral titer reduction at 10 µM (RSV; compound at 10 µM): >6.2 log; solubility, PBS (kinetic solubility in 1× PBS, pH 7.4): 11.2 µM (≈ 5.58 µg/mL); solubility, media (kinetic solubility in CPE assay media (DMEM/F12, Pen/Strep/Glutamine, 2% heat inactivated FBS)): 18.5 µM (≈ 9.22 µg/mL); CC50 [3]: > 50 µM; aqueous stability, 1:1 PBS/ACN ([4]; percent parent remaining after 48 h in 1:1 PBS and acetonitrile): 100%; aqueous stability, PBS ([4]; percent parent remaining after 48 h in PBS): 90.2%; passive permeability in words ([5]; at each of 3 pH levels): Moderate to good; Pe, PAMPA permeability ([5]; donor pH 5.0, acceptor pH 7.4): 780 ×10⁻⁶ cm/s; Pe, PAMPA permeability ([5]; donor pH 6.2, acceptor pH 7.4): 686 ×10⁻⁶ cm/s; Pe, PAMPA permeability ([5]; donor pH 7.4, acceptor pH 7.4): 514 ×10⁻⁶ cm/s; selectivity index (CC50/EC50) (hRSV strain Long; HEp-2 CC50 / RSV CPE EC50): 41.8; EC50 (hRSV strain Long; [7]): 1.1 ± 0.2 µM |
| CCc1ccc(Cn2c(=O)n(Cc3ccc(C(=O)NCCCOC)cc3)c(=O)c3ccccc32)cc1 [Compound 18, 4-((1-(4-Ethylbenzyl)-2,4-dioxo-1,2-dihydroquinazolin-3(4H)-yl)-methyl)-N-(3-methoxypropyl)benzamide] | 1 ± 0.05 | 5.9 |  |
| COCCCNC(=O)c1ccc(Cn2c(=O)c3ccccc3n(Cc3ccc(OC)cc3)c2=O)cc1 [Compound 14, 4-((1-(4-Methoxybenzyl)-2,4-dioxo-1,2-dihydroquinazolin-3(4H)-yl)methyl)-N-(3-methoxypropyl)benzamide] | 2 ± 0.9 | 2.7 |  |
| Cc1ccc(Cn2c(=O)n(Cc3ccc(C(=O)Nc4ccncc4)cc3)c(=O)c3ccccc32)cc1 [Compound 42, 4-((1-(4-Methylbenzyl)-2,4-dioxo-1,2-dihydroquinazolin-3(4H)-yl)methyl)-N-(pyridin-4-yl)benzamide] | 1 ± 0.04 | 3.5 |  |

Second part, led by results:

| EC50 (hRSV strain Long; [6]) [µM] | SMILES | log reduction at 10 µM (RSV) | other results |
| --- | --- | --- | --- |
| 4.9 ± 0.7 | COCCCNC(=O)c1ccc(Cn2c(=O)c3ccccc3n(Cc3ccc4nonc4c3)c2=O)cc1 [Compound 20, 4-((1-(Benzo[c][1,2,5]oxadiazol-5-ylmethyl)-2,4-dioxo-1,2-dihydroquinazolin-3(4H)-yl)methyl)-N-(3-methoxypropyl)benzamide] | 2.1 |  |
| 0.9 ± 0.2 | COCCCNC(=O)c1ccc(Cn2c(=O)c3ccccc3n(Cc3ccc(Br)cc3)c2=O)cc1 [Compound 10, 4-((1-(4-Bromobenzyl)-2,4-dioxo-1,2-dihydroquinazolin-3(4H)-yl)methyl)-N-(3-methoxypropyl)benzamide] | 4.1 |  |
| 2.14 | COCCCNC(=O)c1ccc(Cn2c(=O)c3ccccc3n(Cc3ccc(C)cc3)c2=O)cc1 [Compound 2, N-(3-Methoxypropyl)-4-((1-(4-methylbenzyl)-2,4-dioxo-1,2-dihydroquinazolin-3(4H)-yl)methyl)benzamide] | 4.2 | EC50 (hRSV strain Long; [7]): 2.1 ± 0.5 µM |
| 1 ± 0.08 | Cc1ccc(Cn2c(=O)n(Cc3ccc(C(=O)NCC4CCC4)cc3)c(=O)c3ccccc32)cc1 [Compound 30, N-(Cyclobutylmethyl)-4-((1-(4-methylbenzyl)-2,4-dioxo-1,2-dihydroquinazolin-3(4H)-yl)methyl)benzamide] | 1.2 |  |
| 1.3 ± 0.1 | COCCCNC(=O)c1ccc(Cn2c(=O)c3ccccc3n(Cc3ccc(C(F)(F)F)cc3)c2=O)cc1 [Compound 16, 4-((2,4-Dioxo-1-(4-(trifluoromethyl)benzyl)-1,2-dihydroquinazolin-3(4H)-yl)methyl)-N-(3-methoxypropyl)benzamide] | 2.7 |  |
